Earlier results in publication PMC10837402, “Unnatural amino acid substitutions to improve in vivo stability and tumor uptake of ^68Ga-labeled GRPR-targeted TacBOMB2 derivatives for cancer imaging with positron emission tomography” (EJNMMI Radiopharmacy and Chemistry, 2024).

Columns and labels:
[1] = test system: GRPR-expressing PC-3 tumor xenografts; settings: mouse, in vivo, 1 h; cited from earlier work
[2] = molecular target: T1, GRPR (Homo sapiens, UniProt P30550); design: method as in Wang et al. [2023]; settings: previously reported; ref Wang et al. [2023]; read-out: GRPR binding affinity (Ki); cited from earlier work
T1 construct: generated using GRPR-expressing PC-3 cells; endogenous in cells; host or cells: PC-3 cells
T1 sequence (P30550 whole entry): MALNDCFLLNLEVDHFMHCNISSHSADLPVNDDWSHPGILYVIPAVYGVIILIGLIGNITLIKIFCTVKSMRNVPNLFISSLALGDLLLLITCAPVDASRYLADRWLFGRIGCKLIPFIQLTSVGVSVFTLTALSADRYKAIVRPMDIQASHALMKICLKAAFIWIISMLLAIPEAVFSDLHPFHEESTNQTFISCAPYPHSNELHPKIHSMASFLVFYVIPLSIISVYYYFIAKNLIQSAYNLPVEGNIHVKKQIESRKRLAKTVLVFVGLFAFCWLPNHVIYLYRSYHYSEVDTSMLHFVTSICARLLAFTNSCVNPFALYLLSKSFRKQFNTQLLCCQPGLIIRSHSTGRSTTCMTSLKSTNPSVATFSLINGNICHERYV

[3] = molecular target: T1, GRPR; settings: vs Ac-Bombesin(7–14); ref Horwell et al. 1996; cited from earlier work

| Substance | Uptake in PC-3 tumor [1] | Uptake in adrenal glands [1] | Uptake in blood [1] | Uptake in bone [1] | Uptake in brain [1] | Uptake in fat [1] | Uptake in heart [1] | Uptake in kidneys [1] | Uptake in liver [1] | Uptake in lungs [1] | Uptake in muscle [1] | Uptake in pancreas [1] | Uptake in small intestine [1] | Uptake in spleen [1] | Uptake in stomach [1] | Uptake in testes [1] | Ki [2] | Reduction in GRPR binding affinity caused by NMe-Gly^11 substitution [3] |
| --- | --- | --- | --- | --- | --- | --- | --- | --- | --- | --- | --- | --- | --- | --- | --- | --- | --- | --- |
| ^68Ga-DOTA-Pip-D-Phe^6-Gln^7-Trp^8-Ala^9-Val^10-Gly^11-His^12-Leu^13-Thz^14-NH2 [[^68Ga]Ga-TacBOMB2] | 5.95 %ID/g | 0.52 ± 0.11 %ID/g | 0.39 ± 0.12 %ID/g | 0.26 ± 0.11 %ID/g | 0.03 ± 0.01 %ID/g | 0.10 ± 0.03 %ID/g | 0.14 ± 0.02 %ID/g | 2.43 ± 0.16 %ID/g | 0.29 ± 0.13 %ID/g | 0.39 ± 0.10 %ID/g | 0.13 ± 0.08 %ID/g | 1.30 ± 0.14 %ID/g | 0.60 ± 0.12 %ID/g | 0.27 ± 0.10 %ID/g | 0.54 ± 0.27 %ID/g | 0.16 ± 0.05 %ID/g | 7.62 nM | – |
| Ac-[NMe-Gly^11]Bombesin(7–14) | – | – | – | – | – | – | – | – | – | – | – | – | – | – | – | – | – | > 30 fold |
